According to PMC11879040, “Advancing systemic toxicity risk assessment: Evaluation of a NAM-based toolbox approach” (Toxicological Sciences, 2024):
≈ marks a conversion by molar mass, not a printed value. Like-named read-outs stand apart in the source and are kept apart here.

Columns and labels:
[1] = molecular target: Voltage-dependent L-type Ca2+ channel (dihydropyridine site), CACNA1C (r) (Rattus norvegicus, UniProt P22002); assay type: binding
[2] = test system: Potassium Voltage-Gated Channel Kv non-selective, KCNQ1 (r); test: IPP KCNQ1 binding (antagonist radioligand); parameters: species or system rat; conditions: control α-dendrotoxin
[3] = test system: Gamma-aminobutyric acid receptor subunit alpha-1 BZD site, GABRA1A (r); assay type: binding, rat
[4] = test system: Sodium channel protein type 5 subunit alpha (site 2), SCN5A (r); assay type: binding, rat
[5] = molecular target: T1, Adenosine receptor A2a, ADORA2A (h) (Homo sapiens, UniProt P29274); test: IPP ADORA2A binding (agonist radioligand); conditions: control NECA
T1 construct: purchased Eurofins Cerep (SafetyScreen44-based IPP panel)

[6] = test system: Thyroid hormone receptor alpha, THRA (h); test: IPP THRA coactivator recruitment (agonist); assay type: biochemical, human; conditions: agonist, T3
[7] = test system: Tubulin (r); test: IPP Tubulin binding; parameters: species or system rat; conditions: ligand/control Colchicine
[8] = test system: HepG2 cells; test: Cell stress panel (CSP), 24 h, 8 concentrations, BIFROST global PoD; assay type: cell-based; conditions: for pod_cell_stress PoD: HepG2, cell stress panel PoD
Method: Compounds were tested using the previously developed cell stress panel ([Hatherell et al. 2020]) and the expanded biomarker panel outlined in Middleton et al. HepG2 cells were treated with all compounds for 24 h across 8 concentrations prior to biomarker analysis. The same plate layout and number of replicates (3 biological and 2 technical) were used as previously for each assay within the panel.

[9] = test system: HepG2 cells; test: High-throughput transcriptomics (HTTr, TempO-Seq), HepG2, 24 h; assay type: cell-based, human; conditions: HepG2; for pod_httr_bifrost PoD: HTTr BIFROST PoD; for podl_path_minbmd PoD: HTTr minimum pathway BMD(L)
Method: (§1) HepG2, HepaRG, and MCF7 cells were treated with each compound for 24 h across a dose range of 7 concentrations and lysed using TempO-Seq lysis buffer (BioSpyder Technologies, proprietary kit, see [Middleton et al. 2022] for method details). Sequencing was performed using TempO-Seq (BioClavis) version 2 of the human whole transcriptome panel and analyzed as described previously in Middleton et al.

[10] = test system: HepaRG cells; test: High-throughput transcriptomics (HTTr, TempO-Seq), HepaRG, 24 h; assay type: cell-based, human; conditions: HepaRG; for pod_httr_bifrost PoD: HTTr BIFROST PoD; for podl_path_minbmd PoD: HTTr minimum pathway BMD(L)
Method: as §1

[11] = test system: MCF7 cells; test: High-throughput transcriptomics (HTTr, TempO-Seq), MCF7, 24 h; assay type: cell-based, human; conditions: MCF-7; for pod_httr_bifrost PoD: HTTr BIFROST PoD; for podl_path_minbmd PoD: HTTr minimum pathway BMD(L)
Method: as §1

[12] = test system: Glutamate receptor ionotropic NMDA 1 non-selective, GRIN1 (r)
[13] = human
[14] = human; remark: listed apart in the source
[15] = physchem; conditions: pH 5.22, water
[16] = test system: rat; conditions: cited from earlier work; for PoD (NOAEL): rat, ref ToxRefDB/Paul-Friedman et al. (2020)/regulatory opinions
[17] = cited from earlier work
[18] = molecular target: T2, Estrogen receptor, ER1 (h) (Homo sapiens, UniProt P03372); test: IPP ER1 coactivator recruitment (agonist); assay type: biochemical; conditions: estriol
T2 construct: purchased Eurofins Cerep (SafetyScreen44-based IPP panel)
T2 sequence (P03372 1-595): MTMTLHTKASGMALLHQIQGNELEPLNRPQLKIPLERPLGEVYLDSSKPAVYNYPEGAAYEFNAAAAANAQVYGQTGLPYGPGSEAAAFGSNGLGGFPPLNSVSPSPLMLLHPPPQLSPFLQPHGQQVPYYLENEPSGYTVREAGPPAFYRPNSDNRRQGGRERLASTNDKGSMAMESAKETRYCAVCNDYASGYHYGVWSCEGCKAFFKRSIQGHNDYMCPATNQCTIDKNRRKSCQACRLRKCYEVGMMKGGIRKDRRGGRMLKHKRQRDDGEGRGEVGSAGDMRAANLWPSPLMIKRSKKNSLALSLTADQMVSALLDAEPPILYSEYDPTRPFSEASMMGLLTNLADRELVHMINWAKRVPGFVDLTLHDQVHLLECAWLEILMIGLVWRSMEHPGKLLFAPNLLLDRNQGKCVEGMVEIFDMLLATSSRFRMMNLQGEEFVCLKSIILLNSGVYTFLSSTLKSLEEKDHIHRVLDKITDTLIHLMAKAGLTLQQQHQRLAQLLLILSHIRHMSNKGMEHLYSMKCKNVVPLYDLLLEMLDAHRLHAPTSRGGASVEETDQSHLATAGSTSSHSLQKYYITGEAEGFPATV

[19] = molecular target: T2, Estrogen receptor, ER1 (h); test: IPP ER1 coactivator recruitment (antagonist); assay type: biochemical; conditions: estriol
[20] = test system: 63 targets with known safety liabilities; test: In vitro pharmacological profiling (IPP) panel, screening at 10 or 100 µM and dose response, minimum IC50/AC50; assay type: biochemical; conditions: lowest AC50 across IPP panel (systemic targets); cell_type -; read-out: ipp_lowest_ac50_systemic PoD
[21] = molecular target: Potassium voltage-gated channel subfamily H member 2 hERG, KCNH2 (h) (Homo sapiens, UniProt Q12809)
[22] = test system: dog; conditions: 52 weeks, ref ToxRefDB/Paul-Friedman et al. (2020)/regulatory opinions; cited from earlier work
[23] = molecular target: 5-hydroxytryptamine receptor 2B, HTR2B (h) (Homo sapiens, UniProt P41595); test: biochemical
[24] = physchem
[25] = PBK input, ref [11], cited from earlier work
[26] = Assignment of risk classifications to benchmark chemical-exposure scenarios; conditions: for risk: Oral, from table S1
[27] = IV bolus 100 mg solution, 20 renal transplant patients, validation, ref Lin et al. 1980
[28] = IV bolus 100 mg solution, uremic patients, validation, ref Odlind et al. 1986
[29] = Oral tablet 100 mg, fasted, uremic patients, calibration, ref Odlind et al. 1986
[30] = 100 uM, * denotes assay interference (2-Amino-6-chloro-4-nitrophenol, HC Red 3)

T1 sequence (P29274 whole entry): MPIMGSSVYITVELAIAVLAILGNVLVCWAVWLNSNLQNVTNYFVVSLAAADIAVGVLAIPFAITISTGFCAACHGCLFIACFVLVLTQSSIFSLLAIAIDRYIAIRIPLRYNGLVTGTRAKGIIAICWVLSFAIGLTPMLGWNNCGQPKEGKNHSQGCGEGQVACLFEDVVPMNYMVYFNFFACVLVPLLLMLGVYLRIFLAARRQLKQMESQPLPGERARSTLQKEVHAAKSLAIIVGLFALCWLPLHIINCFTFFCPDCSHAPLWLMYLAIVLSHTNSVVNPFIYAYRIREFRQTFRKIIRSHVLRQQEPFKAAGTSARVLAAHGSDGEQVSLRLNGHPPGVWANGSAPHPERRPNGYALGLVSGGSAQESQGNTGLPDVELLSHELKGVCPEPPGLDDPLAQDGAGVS
Chain of Potassium voltage-gated channel subfamily H member 2 hERG, KCNH2 (h) (Q12809 whole entry): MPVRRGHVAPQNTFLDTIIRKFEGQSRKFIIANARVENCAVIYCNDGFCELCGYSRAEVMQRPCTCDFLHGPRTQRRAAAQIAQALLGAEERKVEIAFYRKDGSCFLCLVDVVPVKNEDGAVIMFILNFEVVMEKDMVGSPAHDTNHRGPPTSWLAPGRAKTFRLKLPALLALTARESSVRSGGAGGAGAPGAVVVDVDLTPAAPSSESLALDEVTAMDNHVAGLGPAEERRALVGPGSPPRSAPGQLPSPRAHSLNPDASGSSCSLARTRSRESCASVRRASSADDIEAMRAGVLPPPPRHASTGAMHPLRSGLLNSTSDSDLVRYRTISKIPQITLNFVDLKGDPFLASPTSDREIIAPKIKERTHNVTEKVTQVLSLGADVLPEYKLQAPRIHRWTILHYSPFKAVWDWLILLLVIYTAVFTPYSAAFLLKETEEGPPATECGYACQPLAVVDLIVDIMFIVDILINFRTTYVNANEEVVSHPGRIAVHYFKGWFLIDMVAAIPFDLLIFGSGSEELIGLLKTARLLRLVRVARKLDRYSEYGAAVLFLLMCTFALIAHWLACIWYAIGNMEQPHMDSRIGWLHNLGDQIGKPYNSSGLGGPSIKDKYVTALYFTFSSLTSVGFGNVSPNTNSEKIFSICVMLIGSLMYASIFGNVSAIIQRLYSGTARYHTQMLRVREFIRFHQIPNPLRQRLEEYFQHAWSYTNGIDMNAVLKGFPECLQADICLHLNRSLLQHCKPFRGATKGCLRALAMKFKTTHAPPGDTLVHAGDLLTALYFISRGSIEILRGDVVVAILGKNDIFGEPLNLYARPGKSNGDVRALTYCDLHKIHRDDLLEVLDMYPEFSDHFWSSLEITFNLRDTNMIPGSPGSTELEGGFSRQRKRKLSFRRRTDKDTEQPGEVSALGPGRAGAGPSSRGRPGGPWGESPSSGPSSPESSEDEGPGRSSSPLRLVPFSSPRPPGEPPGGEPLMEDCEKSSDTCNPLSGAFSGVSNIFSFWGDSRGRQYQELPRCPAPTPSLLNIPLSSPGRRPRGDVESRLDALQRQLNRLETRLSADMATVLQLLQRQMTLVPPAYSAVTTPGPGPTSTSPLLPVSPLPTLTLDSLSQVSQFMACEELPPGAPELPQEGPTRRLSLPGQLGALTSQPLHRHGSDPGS
Chain of 5-hydroxytryptamine receptor 2B, HTR2B (h) (P41595 whole entry): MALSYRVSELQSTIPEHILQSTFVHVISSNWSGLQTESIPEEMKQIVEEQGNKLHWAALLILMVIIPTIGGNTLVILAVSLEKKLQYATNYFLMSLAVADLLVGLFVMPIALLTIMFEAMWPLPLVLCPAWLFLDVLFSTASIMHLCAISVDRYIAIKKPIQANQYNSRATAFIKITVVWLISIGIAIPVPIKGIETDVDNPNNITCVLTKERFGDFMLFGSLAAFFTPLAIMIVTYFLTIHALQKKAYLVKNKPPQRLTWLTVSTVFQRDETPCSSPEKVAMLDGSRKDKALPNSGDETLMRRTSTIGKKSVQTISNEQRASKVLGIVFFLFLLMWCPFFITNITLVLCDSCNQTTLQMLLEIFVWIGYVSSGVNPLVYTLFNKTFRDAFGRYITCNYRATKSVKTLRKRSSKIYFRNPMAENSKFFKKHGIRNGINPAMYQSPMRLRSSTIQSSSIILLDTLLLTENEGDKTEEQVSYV
Chain of Voltage-dependent L-type Ca2+ channel (dihydropyridine site), CACNA1C (r) (P22002 whole entry): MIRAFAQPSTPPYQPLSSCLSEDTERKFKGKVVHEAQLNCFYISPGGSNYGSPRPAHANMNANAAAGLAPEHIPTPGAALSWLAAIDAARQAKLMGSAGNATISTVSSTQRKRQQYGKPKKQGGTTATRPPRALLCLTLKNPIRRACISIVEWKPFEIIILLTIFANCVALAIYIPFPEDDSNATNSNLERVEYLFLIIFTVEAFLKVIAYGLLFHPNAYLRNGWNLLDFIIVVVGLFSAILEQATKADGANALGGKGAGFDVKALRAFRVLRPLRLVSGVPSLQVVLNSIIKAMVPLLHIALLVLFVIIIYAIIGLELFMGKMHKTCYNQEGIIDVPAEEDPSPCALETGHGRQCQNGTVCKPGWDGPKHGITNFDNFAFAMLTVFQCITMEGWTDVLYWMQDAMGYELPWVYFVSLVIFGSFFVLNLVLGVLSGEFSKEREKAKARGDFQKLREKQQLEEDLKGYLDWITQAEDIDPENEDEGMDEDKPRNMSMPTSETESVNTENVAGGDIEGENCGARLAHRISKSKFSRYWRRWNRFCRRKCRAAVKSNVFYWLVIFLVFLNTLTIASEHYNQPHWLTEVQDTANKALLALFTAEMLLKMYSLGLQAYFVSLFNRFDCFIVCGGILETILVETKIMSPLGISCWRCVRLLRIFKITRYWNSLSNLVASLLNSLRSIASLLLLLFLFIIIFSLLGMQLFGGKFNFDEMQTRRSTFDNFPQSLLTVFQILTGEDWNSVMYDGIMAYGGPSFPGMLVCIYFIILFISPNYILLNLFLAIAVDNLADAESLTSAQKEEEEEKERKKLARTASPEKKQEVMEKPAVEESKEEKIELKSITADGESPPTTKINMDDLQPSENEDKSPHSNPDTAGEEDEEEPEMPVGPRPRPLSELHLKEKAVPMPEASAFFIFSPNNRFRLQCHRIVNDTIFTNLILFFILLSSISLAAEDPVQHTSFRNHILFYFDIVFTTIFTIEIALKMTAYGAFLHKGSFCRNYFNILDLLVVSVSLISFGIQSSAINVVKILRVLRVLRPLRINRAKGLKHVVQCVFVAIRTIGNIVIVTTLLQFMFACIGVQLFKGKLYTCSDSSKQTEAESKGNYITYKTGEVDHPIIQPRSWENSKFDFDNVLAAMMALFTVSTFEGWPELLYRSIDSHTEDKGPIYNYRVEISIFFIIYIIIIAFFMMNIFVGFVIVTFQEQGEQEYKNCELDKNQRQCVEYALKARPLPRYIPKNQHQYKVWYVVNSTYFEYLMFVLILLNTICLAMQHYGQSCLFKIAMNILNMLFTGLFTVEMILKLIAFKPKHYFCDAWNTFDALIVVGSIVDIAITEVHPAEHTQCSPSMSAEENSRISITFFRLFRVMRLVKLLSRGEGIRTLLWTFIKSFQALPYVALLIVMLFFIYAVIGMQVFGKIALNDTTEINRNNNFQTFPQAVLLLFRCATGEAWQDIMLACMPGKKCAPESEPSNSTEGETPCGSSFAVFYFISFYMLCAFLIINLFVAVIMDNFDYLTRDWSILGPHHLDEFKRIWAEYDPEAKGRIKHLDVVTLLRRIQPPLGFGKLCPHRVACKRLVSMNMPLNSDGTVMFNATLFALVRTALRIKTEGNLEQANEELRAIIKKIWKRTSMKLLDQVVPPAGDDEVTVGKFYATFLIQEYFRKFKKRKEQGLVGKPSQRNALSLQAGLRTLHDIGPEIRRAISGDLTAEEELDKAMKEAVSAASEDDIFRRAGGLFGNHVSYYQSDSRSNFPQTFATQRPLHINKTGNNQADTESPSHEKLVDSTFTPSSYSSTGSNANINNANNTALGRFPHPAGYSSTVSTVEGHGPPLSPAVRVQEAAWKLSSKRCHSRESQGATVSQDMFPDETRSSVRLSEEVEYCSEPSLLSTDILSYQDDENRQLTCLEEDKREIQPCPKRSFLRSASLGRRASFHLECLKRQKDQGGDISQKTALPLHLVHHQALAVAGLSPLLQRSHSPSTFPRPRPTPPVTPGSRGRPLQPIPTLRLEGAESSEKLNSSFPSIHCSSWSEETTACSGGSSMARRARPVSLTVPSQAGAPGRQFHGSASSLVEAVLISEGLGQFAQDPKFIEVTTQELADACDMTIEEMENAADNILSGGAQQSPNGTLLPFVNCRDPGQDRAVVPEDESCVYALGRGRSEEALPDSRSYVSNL

Cn1cnc([N+](=O)[O-])c1Sc1ncnc2nc[nH]c12 [Azathioprine, 6-[(1-Methyl-4-nitro-1H-imidazol-5-yl)sulfanyl]-7H-purine]
Specific binding [1]: -9.0%
Specific binding ([2]; IPP screening at 10 uM): 1.0%
Specific binding [3]: 17.2%
Specific binding [4]: -8.7%
Specific binding ([5]; IPP screening at 10 uM): 38.3%
IPP screening %, Coactivator recruitment ([6]; 10 uM): 3.0%
IPP screening %, Specific binding ([7]; 10 uM): 6.0%
Bioactivity Observations: cell stress panel [8]: The leading PoD is extrapolated below the lowest dose tested in the CSP
pod_cell_stress PoD [8]: 3.96e-05 µM
pod_httr_bifrost PoD [9]: 0.01764 µM
podl_path_minbmd PoD [9]: 0.1634 µM
pod_httr_bifrost PoD [10]: 0.8426 µM
podl_path_minbmd PoD [10]: 3.742 µM
pod_httr_bifrost PoD [11]: 0.1265 µM
podl_path_minbmd PoD [11]: 0.2237 µM
Specific binding [12]: 4.2%
risk [13]: 1
Intrinsic Liver Clearance [14]: 4323.84 L/h
solubility [15]: 231 µg/mL (≈ 833 µM)
PoD (NOAEL) ([16]; 28 days, haematological changes): 3 mg/kg bw/day
Reported AUC0-t [17, 27]: 430 ng·h/mL
Reported cmax [17, 27]: 0.9163 µg/mL
Reported tmax [17, 27]: 0 min
Reported AUC0-t [17, 28]: 1032.5 ng·h/mL
Reported cmax [17, 28]: 0.7498 µg/mL
Reported tmax [17, 28]: 7.524 min
Reported AUC0-t [17, 29]: 100 ng·h/mL
Reported cmax [17, 29]: 0.0478 µg/mL
Reported tmax [17, 29]: 32.87 min

CC1(C)C(C=C(Cl)Cl)C1C(=O)OC(C#N)c1cccc(Oc2ccccc2)c1 (stereo not drawn) [Cypermethrin, Cyano(3-phenoxyphenyl)methyl 3-(2,2-dichloroethenyl)-2,2-dimethylcyclopropane-1-carboxylate]
Specific binding ([2]; IPP screening at 10 uM): 0.9%
Specific binding ([3]; IPP screening at 10 uM, control diazepam): 5.5%
Specific binding ([4]; IPP screening at 10 uM, control veratridine): -112.7%
Specific binding ([5]; IPP screening at 10 uM): 0.1%
IPP screening %, Coactivator recruitment ([18]; 10 uM): 0.0%
IPP screening %, Coactivator recruitment ([19]; 10 uM): 0.0%
IPP screening %, Coactivator recruitment ([6]; 10 uM): 0.0%
IPP screening %, Specific binding ([7]; 10 uM): 8.0%
pod_cell_stress PoD [8]: 7.881 µM
pod_httr_bifrost PoD [9]: 2.669 µM
podl_path_minbmd PoD [9]: 2.638 µM
pod_httr_bifrost PoD [10]: 4.402 µM
podl_path_minbmd PoD [10]: 35.2754 µM
pod_httr_bifrost PoD [11]: 8.9686 µM
podl_path_minbmd PoD [11]: 25.4106 µM
AC50 [20]: 490 nM
Specific binding ([12]; IPP screening at 10 uM, control CGS 19755): 11.4%
IPP screening %, Specific binding ([21]; 10 uM, [3H] Dofetilide, control Terfenadine): 22.7%
Lowest NOAEL ([16]; rat chronic study, route of administration not reported, ref not given): Lowest NOAEL is 0.5 mg/kg from a rat chronic study, but the route of administration isn't reported. 1 mg/kg/day is NOAEL from 52 week dog study
PoD (NOAEL) [22]: 1 mg/kg bw/day
IC50 [23]: > 570 nM

CC(C)[C@H](N)C(=O)O [L-valine, L-Valine]
Specific binding ([2]; IPP screening at 100 uM): 15.0%
Specific binding ([3]; IPP screening at 100 uM, control diazepam): 1.9%
Specific binding ([4]; IPP screening at 100 uM, control veratridine): 12.2%
Specific binding ([5]; IPP screening at 100 uM): -4.2%
IPP screening %, Coactivator recruitment [18, 30]: 0.0%
IPP screening %, Coactivator recruitment [19, 30]: -2.0%
IPP screening %, Coactivator recruitment [6, 30]: 2.0%
IPP screening %, Specific binding ([7]; 100 uM): 2.0%
pod_cell_stress PoD [8]: 39.7854 µM
pod_httr_bifrost PoD [9]: 316.528 µM
podl_path_minbmd PoD [9]: 625 µM
pod_httr_bifrost PoD [10]: 162.177 µM
podl_path_minbmd PoD [10]: 351.712 µM
pod_httr_bifrost PoD [11]: 26.9475 µM
podl_path_minbmd PoD [11]: 43.6766 µM
Specific binding ([12]; IPP screening at 100 uM, control CGS 19755): 0.4%
IPP screening %, Specific binding ([21]; human): -3.8%
logP [24]: -2.21
PoD (NOAEL) ([16]; repeat dose): 666 mg/kg bw/day
pKa Value ACID ([25]; level L2): 2.3
pKa Value BASE ([25]; levels L2/L3): 9.55
Risk Classification ([26]; Oral 26 mg/kg bw/day): Low risk
Risk Classification ([26]; Oral 4000 mg/day): Low risk
risk ([26]; 26 mg/kg mean requirements, Tablet, Exp1): 0
risk ([26]; Dietary 4000 mg/day, Food & Drink, Exp2): 0
